Measurements as given in the NIST ThermoML archive (doi:10.1016/j.fluid.2014.10.029).

Details: for mass density: 101.33 kPa, Liquid, Buoyancy - hydrostatic balance with magnetic suspension - one sinker

CCCCn1cc[n+](C)c1C.F[P-](F)(F)(F)(F)F [1-butyl-2,3-dimethylimidazolium hexafluorophosphate]
Wilhelmy plate
Details | surface tension liquid-gas [mN/m]
298.17 K | 44.42
313.07 K | 43.73
323.27 K | 43.16
333.13 K | 42.6
338.38 K | 42.38
343.51 K | 42.13
348.43 K | 41.89
353.08 K | 41.68
358.76 K | 41.41
364.84 K | 41.11

CCCC[n+]1cccc(C)c1.F[P-](F)(F)(F)(F)F [1-butyl-3-methylpyridinium hexafluorophosphate]
Wilhelmy plate
Details | surface tension liquid-gas [mN/m]
323.02 K | 43.24
327.6 K | 42.96
333.18 K | 42.58
338.24 K | 42.24
343.75 K | 41.89
348.09 K | 41.63
353.61 K | 41.3
358.09 K | 40.94
364.84 K | 40.51

CCCCCCCn1cc[n+](C)c1.F[P-](F)(F)(F)(F)F [1-heptyl-3-methylimidazolium hexafluorophosphate]
Details | mass density [kg/m3]
292.97 K | 1266.43
298.16 K | 1262.6
303.16 K | 1258.82
308.22 K | 1254.84
313.19 K | 1250.97
318.05 K | 1247.4
323.09 K | 1243.43
328.16 K | 1239.71
333.36 K | 1235.76
337.82 K | 1232.14
343.31 K | 1228.66
348.05 K | 1224.36
352.96 K | 1220.98
357.92 K | 1217.32
364.45 K | 1212.58

surface tension liquid-gas [mN/m]
Details | Ring tensiometer | Wilhemly plate
293.23 K | 36.05 | –
293.26 K | – | 36.06
298.15 K | 35.87 | 35.89
303.13 K | 35.6 | –
303.15 K | – | 35.6
308.2 K | 35.31 | –
308.21 K | – | 35.41
313.22 K | – | 35.13
313.26 K | 35.14 | –
318.05 K | – | 34.87
318.08 K | 34.74 | –
323.21 K | 34.65 | –
323.22 K | – | 34.65
328.1 K | – | 34.39
328.18 K | 34.3 | –
333.37 K | 34.07 | 34.13
337.89 K | – | 33.91
338.05 K | 33.75 | –
343.31 K | 33.7 | –
343.34 K | – | 33.68
348.16 K | – | 33.32
348.26 K | 33.24 | –
353.04 K | – | 33.18
357.99 K | 33.04 | –
358.04 K | – | 32.96
364.54 K | 32.62 | –
364.61 K | – | 32.67

CCCCCn1cc[n+](C)c1.F[P-](F)(F)(F)(F)F [1-methyl-3-pentylimidazolium hexafluorophosphate]
surface tension liquid-gas [mN/m]
Details | Ring tensiometer | Wilhelmy plate
262.89 K | 43.04 | –
268.06 K | 42.78 | –
273.2 K | – | 42.46
277.73 K | – | 42.19
277.78 K | 42.23 | –
283.1 K | 41.97 | –
283.17 K | – | 41.95
288.28 K | – | 41.53
288.29 K | 41.76 | –
292.81 K | 41.54 | 41.49
298.19 K | – | 41.24
298.2 K | 41.35 | –
303.11 K | 40.96 | –
303.12 K | – | 40.94
308.14 K | – | 40.68
308.16 K | 40.75 | –
313.06 K | 40.41 | 40.4
317.95 K | – | 40.17
317.98 K | 40.23 | –
323.19 K | 40.04 | –
323.2 K | – | 39.86
328.3 K | – | 39.63
328.37 K | 39.69 | –
333.51 K | 39.41 | –
333.52 K | – | 39.36
338.58 K | 39.09 | –
338.6 K | – | 39.1
342.99 K | 38.8 | –
343 K | – | 38.86
348.07 K | 38.64 | –
348.11 K | – | 38.64
353.27 K | 38.38 | –
353.3 K | – | 38.4
357.97 K | – | 38.11
358.34 K | 38.1 | –
362.98 K | – | 37.85

Details | mass density [kg/m3]
267.86 K | 1351.91
273.05 K | 1348.4
283.12 K | 1339.58
288.38 K | 1335.51
292.83 K | 1332.19
298.17 K | 1328.15
303.2 K | 1324.24
308.22 K | 1318.91
313.1 K | 1315.32
317.98 K | 1311.51
323.18 K | 1307.37
328.4 K | 1303.77
333.5 K | 1299.9
338.86 K | 1295.93
342.93 K | 1292.1
348 K | 1288.64
353.25 K | 1284.49
358.27 K | 1281.15
362.73 K | 1277.18

CCCn1cc[n+](C)c1.F[P-](F)(F)(F)(F)F [1-methyl-3-propylimidazolium hexafluorophosphate]
surface tension liquid-gas [mN/m]
Details | Ring tensiometer | Wilhelmy plate
293.21 K | – | 48.34
293.23 K | 47.98 | –
298.2 K | – | 47.99
298.23 K | 47.77 | –
303.01 K | – | 47.68
303.04 K | 48.03 | –
308.2 K | – | 47.36
308.21 K | 47.15 | –
313.17 K | – | 47.06
313.22 K | 47.18 | –
318.07 K | – | 46.74
318.17 K | 46.99 | –
323.11 K | – | 46.4
323.22 K | 46.76 | –
328.22 K | 46.09 | –
328.25 K | – | 46.06
333.39 K | 45.83 | –
333.45 K | – | 45.73
338.46 K | 45.38 | 45.41
343.28 K | 44.84 | –
343.3 K | – | 45.14
348.2 K | 44.8 | –
348.25 K | – | 44.78
352.68 K | – | 44.5
352.76 K | 44.38 | –
358.22 K | 43.88 | –
358.24 K | – | 44.23
364.96 K | – | 43.78
365.07 K | 43.64 | –

CCCCCCCCCn1cc[n+](C)c1.F[P-](F)(F)(F)(F)F [1-nonyl-3-methylimidazolium hexafluorophosphate]
surface tension liquid-gas [mN/m]
Details | Ring tensiometer | Wilhelmy plate
288.14 K | – | 33.2
288.18 K | 33.64 | –
293.07 K | 33.26 | 32.96
298.13 K | 32.86 | –
298.16 K | – | 32.7
303.11 K | – | 32.48
303.12 K | 32.8 | –
308.11 K | – | 32.27
308.13 K | 32.71 | –
313.16 K | – | 31.99
313.19 K | 32.4 | –
318.03 K | – | 31.76
318.06 K | 32.17 | –
323.07 K | – | 31.51
323.1 K | 31.89 | –
328 K | 31.7 | –
328.04 K | – | 31.25
332.93 K | 31.43 | –
332.95 K | – | 30.99
338.37 K | – | 30.75
338.49 K | 31.11 | –
343.34 K | – | 30.5
343.59 K | 30.88 | –
347.87 K | – | 30.23
347.9 K | 30.57 | –
352.81 K | – | 29.98
352.87 K | 30.32 | –
357.85 K | – | 29.76
358.12 K | 30.14 | –
365.11 K | 29.71 | –
365.22 K | – | 29.4

Details | mass density [kg/m3]
293.11 K | 1216.29
298.18 K | 1212.6
303.15 K | 1209.57
308.14 K | 1205.42
313.21 K | 1201.39
318.08 K | 1197.66
323.13 K | 1193.94
328.02 K | 1190.39
332.95 K | 1186.82
338.45 K | 1183.02
343.45 K | 1179.31
348.02 K | 1176.28
352.94 K | 1172.76
358.11 K | 1168.91
365.13 K | 1163.68
